The values below come from patent publication US20220017468A1, “ISOQUINOLINE COMPOUNDS AND THEIR USE IN TREATING AhR IMBALANCE” (Dermavant Sciences GmbH, priority 2020, published 2022).

Entries after “also recorded” stand apart in the source; their conditions may differ. Read-outs that look alike come from different tables or passages of the source.

A short description of data set [1]: skin binding in human skin homogenate. The format is in vitro ADME. The note with it: 25, 50 and 100 ng/mL.
A short description of data set [2]: metabolic stability in liver microsomes, human. The format is in vitro ADME. On the technique in general: Liver microsomes are a subcellular fraction often used to study metabolism.
Data set [3] has as its system Nrf2. The data set can be described thus: luciferase-based reporter assay for NQO1 gene expression. The format is cell-based. In general terms: A reporter such as luciferase makes a cellular process visible.
A short description of data set [4]: metabolic stability in hepatocytes, mouse. In kind it is in vitro ADME.
The test system of data set [5] is AhR pathway (CYP1A1 mRNA). Kind of data set: sRICA ex vivo human skin explant, CYP1A1 induction. The format is cell-based. As to conditions: 1 μM or 10 μM in the baso-lateral media. From the text: (§1) A liquid-air interface skin explant culture with the in situ activation of immunocompetent cells, termed sRICA for skin-Resident Immune Cell Activation model was previously reported (Smith et al., (2016) PLoS One, 11(2)). In this assay, specific cytokine profiles of inflammatory skin diseases can be induced, including the Th17-type cytokines, IL17A, IL17F and IL22. Reduction of biomarkers in this assay indicates biological activity of the test compound.
(§2) Ex vivo human skin obtained from abdominoplasty surgery was processed to remove fat and dermatomed the tissue to ˜750 microns. Dermatomed skin was then cleaned in two serial rinses of 5-10 minutes each in room temperature PBS containing an antibiotic/antimycotic solution.
(§3) Skin was treated as asceptic from this point on; all further manipulations were performed in a class II biosafety cabinet. […]
(§4) The harvested skin tissue were stored in RNAlater until use. […] RNA was diluted to a concentration of 23.6 ng/ul (total of 100 ng RNA), and was used as template in a 10 uL PCR volume using Applied Biosciences RNA-to-CT 1 Step kit (AB Catalog # 4392938) and the specific TaqMan probes foreach gene to be quantified. […]
(§5) RNA levels of gene of interest's Relative Expression was calculated using the Delta Delta CT formula.
(§6) RNA was isolated from the tissue harvested at 24 hr and 48 hr post stimulation and gene expression was assessed by quantitative PCR. […]

Data set [6] is described as follows: metabolic stability in hepatocytes, rat. The format is in vitro ADME.
A short description of data set [7]: metabolic stability in hepatocytes, dog. The format is in vitro ADME.
Data set [8] concerns IL-17A. Kind of data set: CD4+ T cell IL17 assay. In kind it is cell-based, human. As to conditions: for IC50: T-cell. The protocol:
Therefore, compounds are evaluated for their ability to reduce IL-17 production from CD4+ T cells stimulated under Th17-skewing conditions. Cryopreserved human CD4^+ T cells (AllCells, LLC, Alameda, CA and Stemcell Technologies, Inc. Vancouver, Canada) were differentiated to the Th17 subtype by culturing for 5 days in CD3-coated tissue culture plates (2 μg/mL) in Iscove's modified Dulbecco's medium (IMDM) containing 10% HI-FBS, 55 μM 2-mercaptoethanol and soluble anti-CD28 (3 μg/mL) in the presence of a Th17 skewing cocktail, [IL-1β (10 ng/mL), IL-6 (30 ng/mL), TGFβ (0.5 ng/mL), IL-21 (10 ng/mL), IL-23 (10 ng/mL), anti-IFNγ (10 μg/mL) and anti-IL-4 (10 μg/mL)] in the presence or absence of serially diluted compounds. Secretion of IL-17 from polarized CD4+ T-cells was measured in the culture media using an MSD (Meso Scale Discovery) detection system following 5 day exposure toTh17 polarization reagents with and without compounds.

Data set [9] concerns human peripheral blood CD4+ T-cells. Kind of data set: T cell viability. In kind it is cell-based. As to conditions: 120 h, Th17 polarizing conditions, 5 days. From the text:
Points represent percent maximum expression of protein compared to Th17 from six combined donors; 3 biological replicates per treatment. Error bars represent standard error of mean. […] Data are mean±standard error from 3 to 9 experimental data points. […] Error bars represent mean ±standard error of 10-15 biological replicates.

In data set [10] the test system is IL17A mRNA. Kind of data set: sRICA ex vivo human skin explant, IL17A expression. In kind it is cell-based. The note with it: 10 μM, Th17 polarizing conditions.
Excerpt: as §1, §2, §3, §4, §5, §6

Regarding `CC(C)c1c(O)cc(-c2cc3ccccc3cn2)cc1O`, the values for the fraction unbound in [1] (human dermis homogenate), in data set [1] (human epidermis homogenate) and in data set [1] (whole human skin homogenate) were 0.341 ± 0.115, 0.513 ± 0.011 and 0.219 ± 0.0072, respectively. Also, the “CLint, mic” value in data set [2] (human liver microsomes, 0.5 μM) was 1.35 mL/min/g liver. Besides, the CLint scaled at 0.5 μM in data set [2] (human liver microsomes, 0.5 μM, read-out: Scaled CLint, mic) stood at 33.1 mL/min/kg; in data set [4] (read-out: Scaled CLint, hep), 1140 mL/min/kg; in [6] (rat hepatocytes, 0.5 μM, read-out: Scaled CLint, hep), 1600 mL/min/kg; in [7] (read-out: Scaled CLint, hep), 240 mL/min/kg. The half-life at 0.5 μM in data set [2] (human, microsomes) was found to be 40.9 min; in [4], 8.39 min; in data set [6] (rat hepatocytes, 0.5 μM), 3.37 min; in data set [7], 31.9 min. Moreover, the “Nrf2 pEC50” value in data set [3] is recorded as “pEC50 = 7.0”. Besides, the “CLint, hep” value in [4] (0.5 μM) is 22.3 mL/min/g liver; in data set [6] (rat hepatocytes, 0.5 μM), 44.4 mL/min/g liver; in [7] (0.5 μM), 7.39 mL/min/g liver. Moreover, the “AhR pathway activation as measured by cyp1a1 gene induction” value in [5] is given as “confirmed”. Besides, the “in vitro-to-in vivo extrapolation (IVIVE) ratio” value in data set [6] (rat) is given as 0.45. For the same molecule, the IC50 in [8] (MSD-based readout of secreted IL-17A from Th17-polarized primary human CD4+ peripheral blood T cells, read-out: IL-17A pIC50 (converted)) is 3.98 nM; in [8] (primary human peripheral blood CD4+ T-cells, read-out: IL-17A inhibition IC50), 140 nM; in data set [9], 5900 nM. In addition, the IL-17A production result in [8] (Th17-skewing conditions, applied throughout culture) is given as “suppression of IL-17A; also recorded: reduces IL-17A production in a dose-dependent manner”. Moreover, the “inhibition of IL17A message expression” value in data set [10] is listed as about 45%.

What is called fraction unbound is free concentration divided by total concentration. In general, CLint scaled refers to the rate of metabolic loss divided by the concentration. The term half-life denotes how long it takes for the measured level to halve. Lower therefore signals fast loss.
